Laboratory results: the supplement of paper PMC12463676, “Small-molecule dissolution of stress granules by redox modulation benefits ALS models” (Nature Chemical Biology, 2025)

Legend:
lipoamide = compound: NC(=O)CCCCC1CCSS1 [lipoamide]; assay: thermal stability z-score vs DMSO; higher = more thermally stabilized by treatment; settings: HeLa, lipoamide concentration 100 µM
Protocol: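 Cellular thermal proteome profiling in HeLa cells. Cells were treated with 100 µM lipoamide for 1 h, with or without 1 mM arsenate for a further 1 h, then heated to ten temperatures (37-66.3 °C), and soluble protein was quantified by TMT mass spectrometry relative to 0.1% DMSO controls. The thermal stability score (sum of log2 fold changes minus the abundance score) was transformed to a z-score; mean of n = 3 experiments.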

potassium arsenate = compound: O=[As]([O-])(O)O.[K+] [potassium arsenate]; assay: as above; settings: HeLa; arsenate concentration 1 mM
Protocol: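 Cellular thermal proteome profiling in HeLa cells treated with 1 mM arsenate for 1 h (DMSO pretreatment), heated to ten temperatures (37-66.3 °C). Soluble protein was quantified by TMT mass spectrometry relative to DMSO controls; the thermal stability score was transformed to a z-score; mean of n = 3 experiments.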

[1] = arsenate co-treatment: 1 mM arsenate 1 h
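Note: each temperature applied for 3 min, abundance score taken as mean log2 fold change at the two lowest temperatures, z-score obtained by mean subtraction and division by SD.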

Chain of UniProt Q9NVN3 (Q9NVN3 whole entry): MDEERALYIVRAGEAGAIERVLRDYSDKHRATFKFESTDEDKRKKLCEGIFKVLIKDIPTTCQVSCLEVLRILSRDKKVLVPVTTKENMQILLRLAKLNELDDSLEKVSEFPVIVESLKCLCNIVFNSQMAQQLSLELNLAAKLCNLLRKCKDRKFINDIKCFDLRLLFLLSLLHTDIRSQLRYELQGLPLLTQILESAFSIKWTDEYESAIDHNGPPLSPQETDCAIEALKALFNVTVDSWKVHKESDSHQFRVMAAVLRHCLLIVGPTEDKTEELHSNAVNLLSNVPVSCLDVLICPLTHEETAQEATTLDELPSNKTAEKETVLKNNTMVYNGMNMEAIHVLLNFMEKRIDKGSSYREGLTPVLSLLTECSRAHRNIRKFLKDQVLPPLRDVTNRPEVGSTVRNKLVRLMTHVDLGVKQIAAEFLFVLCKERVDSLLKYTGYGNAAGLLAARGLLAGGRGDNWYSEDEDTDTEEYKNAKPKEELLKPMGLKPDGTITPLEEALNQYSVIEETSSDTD
Chain of UniProt Q8NBN7 (Q8NBN7 whole entry): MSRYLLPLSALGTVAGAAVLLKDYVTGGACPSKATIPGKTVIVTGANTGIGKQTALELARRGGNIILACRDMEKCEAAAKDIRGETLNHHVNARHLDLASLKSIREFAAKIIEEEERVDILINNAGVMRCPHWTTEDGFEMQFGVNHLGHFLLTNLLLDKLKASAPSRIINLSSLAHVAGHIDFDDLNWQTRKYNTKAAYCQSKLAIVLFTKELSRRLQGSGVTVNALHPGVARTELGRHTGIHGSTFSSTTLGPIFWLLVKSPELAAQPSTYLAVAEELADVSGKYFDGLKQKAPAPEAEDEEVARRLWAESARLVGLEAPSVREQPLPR
Chain of UniProt Q9HBH5 (Q9HBH5 whole entry): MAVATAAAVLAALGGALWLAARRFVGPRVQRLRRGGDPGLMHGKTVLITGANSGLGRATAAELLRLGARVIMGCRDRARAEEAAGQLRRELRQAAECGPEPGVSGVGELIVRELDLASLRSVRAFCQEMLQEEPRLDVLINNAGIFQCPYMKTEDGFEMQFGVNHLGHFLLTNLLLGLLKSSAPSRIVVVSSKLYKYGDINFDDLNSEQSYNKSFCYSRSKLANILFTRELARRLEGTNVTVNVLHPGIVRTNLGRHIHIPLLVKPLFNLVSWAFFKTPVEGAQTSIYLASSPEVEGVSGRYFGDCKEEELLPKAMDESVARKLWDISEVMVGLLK
Chain of UniProt Q9BWE0 (Q9BWE0 whole entry): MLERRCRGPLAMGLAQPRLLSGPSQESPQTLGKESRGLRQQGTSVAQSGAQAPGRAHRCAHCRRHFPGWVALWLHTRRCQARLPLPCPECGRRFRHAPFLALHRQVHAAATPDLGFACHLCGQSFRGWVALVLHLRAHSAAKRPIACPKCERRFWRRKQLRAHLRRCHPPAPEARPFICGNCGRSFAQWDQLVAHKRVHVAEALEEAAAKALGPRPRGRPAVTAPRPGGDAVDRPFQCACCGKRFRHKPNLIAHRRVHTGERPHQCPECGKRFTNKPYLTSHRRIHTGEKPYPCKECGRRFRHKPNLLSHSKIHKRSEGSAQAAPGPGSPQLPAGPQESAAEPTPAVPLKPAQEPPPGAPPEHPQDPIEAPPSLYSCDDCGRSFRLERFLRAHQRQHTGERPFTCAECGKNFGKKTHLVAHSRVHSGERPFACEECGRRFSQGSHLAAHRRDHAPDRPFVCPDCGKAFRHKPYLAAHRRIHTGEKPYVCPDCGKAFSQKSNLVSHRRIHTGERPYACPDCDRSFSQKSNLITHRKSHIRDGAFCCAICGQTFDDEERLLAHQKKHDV
Chain of UniProt Q9Y3B8 (Q9Y3B8 whole entry): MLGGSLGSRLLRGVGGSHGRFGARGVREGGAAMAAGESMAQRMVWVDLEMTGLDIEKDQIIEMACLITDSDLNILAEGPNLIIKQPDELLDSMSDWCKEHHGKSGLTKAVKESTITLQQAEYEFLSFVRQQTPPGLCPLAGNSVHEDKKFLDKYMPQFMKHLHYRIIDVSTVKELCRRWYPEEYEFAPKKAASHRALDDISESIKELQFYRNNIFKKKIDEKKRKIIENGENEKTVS
Chain of UniProt Q9H6H4 (Q9H6H4 whole entry): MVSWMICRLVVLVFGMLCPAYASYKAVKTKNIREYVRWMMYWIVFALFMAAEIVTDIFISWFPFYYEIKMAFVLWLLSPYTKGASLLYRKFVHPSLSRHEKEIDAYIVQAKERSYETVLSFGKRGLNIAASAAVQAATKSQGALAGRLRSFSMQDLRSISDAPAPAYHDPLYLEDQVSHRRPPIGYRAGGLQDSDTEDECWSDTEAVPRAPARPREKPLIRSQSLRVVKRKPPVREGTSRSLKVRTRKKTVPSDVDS
Chain of UniProt P35250 (P35250 whole entry): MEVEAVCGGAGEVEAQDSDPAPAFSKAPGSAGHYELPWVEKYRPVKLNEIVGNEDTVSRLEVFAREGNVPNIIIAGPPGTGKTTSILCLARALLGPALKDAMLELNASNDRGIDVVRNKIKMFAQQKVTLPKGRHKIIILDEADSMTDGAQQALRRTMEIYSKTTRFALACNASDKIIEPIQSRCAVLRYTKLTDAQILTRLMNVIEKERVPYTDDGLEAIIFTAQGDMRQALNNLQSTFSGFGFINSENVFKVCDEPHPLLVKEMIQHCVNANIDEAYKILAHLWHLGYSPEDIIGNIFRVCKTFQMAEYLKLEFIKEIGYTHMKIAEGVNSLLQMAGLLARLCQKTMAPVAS
Chain of UniProt Q06587 (Q06587 whole entry): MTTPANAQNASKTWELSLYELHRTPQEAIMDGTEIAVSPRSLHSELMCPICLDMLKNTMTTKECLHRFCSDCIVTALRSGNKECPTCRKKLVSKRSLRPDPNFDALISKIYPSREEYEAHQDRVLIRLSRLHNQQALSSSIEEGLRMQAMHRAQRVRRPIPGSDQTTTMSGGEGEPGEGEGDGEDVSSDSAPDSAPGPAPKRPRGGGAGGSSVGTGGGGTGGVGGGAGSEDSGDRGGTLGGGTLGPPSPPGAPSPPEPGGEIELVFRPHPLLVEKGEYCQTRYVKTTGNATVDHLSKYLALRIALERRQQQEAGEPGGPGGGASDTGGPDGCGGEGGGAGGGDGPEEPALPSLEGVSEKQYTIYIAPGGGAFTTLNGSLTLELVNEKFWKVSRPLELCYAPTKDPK
Chain of UniProt P35241 (P35241 whole entry): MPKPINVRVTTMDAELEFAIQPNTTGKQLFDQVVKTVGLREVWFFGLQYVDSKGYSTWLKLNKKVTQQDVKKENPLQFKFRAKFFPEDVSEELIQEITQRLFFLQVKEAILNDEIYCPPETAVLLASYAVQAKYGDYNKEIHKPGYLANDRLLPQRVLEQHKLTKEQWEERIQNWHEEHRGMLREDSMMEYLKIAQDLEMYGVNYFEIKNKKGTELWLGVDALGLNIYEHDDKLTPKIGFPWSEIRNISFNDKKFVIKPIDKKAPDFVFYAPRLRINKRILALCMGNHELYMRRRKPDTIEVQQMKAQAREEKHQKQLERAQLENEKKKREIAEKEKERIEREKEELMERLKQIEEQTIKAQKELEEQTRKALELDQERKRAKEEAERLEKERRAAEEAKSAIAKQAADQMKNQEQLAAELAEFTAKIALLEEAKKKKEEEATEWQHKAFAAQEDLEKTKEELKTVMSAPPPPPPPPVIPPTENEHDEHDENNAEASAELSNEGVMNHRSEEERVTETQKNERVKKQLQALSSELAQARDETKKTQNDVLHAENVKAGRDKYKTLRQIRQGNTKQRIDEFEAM
Chain of UniProt Q96HR9 (Q96HR9 whole entry): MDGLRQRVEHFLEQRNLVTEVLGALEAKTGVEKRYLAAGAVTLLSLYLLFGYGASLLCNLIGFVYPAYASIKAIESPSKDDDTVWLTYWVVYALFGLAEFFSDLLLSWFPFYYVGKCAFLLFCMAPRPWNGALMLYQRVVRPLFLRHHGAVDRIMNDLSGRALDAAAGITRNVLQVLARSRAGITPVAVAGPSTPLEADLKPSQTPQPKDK
Chain of UniProt P40937 (P40937 whole entry): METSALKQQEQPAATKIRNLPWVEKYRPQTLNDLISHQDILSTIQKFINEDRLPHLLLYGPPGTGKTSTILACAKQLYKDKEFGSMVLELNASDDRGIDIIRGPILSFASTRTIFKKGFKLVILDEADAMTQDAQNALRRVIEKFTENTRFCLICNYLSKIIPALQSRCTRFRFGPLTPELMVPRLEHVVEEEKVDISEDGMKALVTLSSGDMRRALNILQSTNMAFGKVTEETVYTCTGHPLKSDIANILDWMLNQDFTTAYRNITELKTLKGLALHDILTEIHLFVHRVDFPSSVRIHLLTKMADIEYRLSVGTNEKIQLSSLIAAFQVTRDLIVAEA
Chain of UniProt Q8IUC4 (Q8IUC4 whole entry): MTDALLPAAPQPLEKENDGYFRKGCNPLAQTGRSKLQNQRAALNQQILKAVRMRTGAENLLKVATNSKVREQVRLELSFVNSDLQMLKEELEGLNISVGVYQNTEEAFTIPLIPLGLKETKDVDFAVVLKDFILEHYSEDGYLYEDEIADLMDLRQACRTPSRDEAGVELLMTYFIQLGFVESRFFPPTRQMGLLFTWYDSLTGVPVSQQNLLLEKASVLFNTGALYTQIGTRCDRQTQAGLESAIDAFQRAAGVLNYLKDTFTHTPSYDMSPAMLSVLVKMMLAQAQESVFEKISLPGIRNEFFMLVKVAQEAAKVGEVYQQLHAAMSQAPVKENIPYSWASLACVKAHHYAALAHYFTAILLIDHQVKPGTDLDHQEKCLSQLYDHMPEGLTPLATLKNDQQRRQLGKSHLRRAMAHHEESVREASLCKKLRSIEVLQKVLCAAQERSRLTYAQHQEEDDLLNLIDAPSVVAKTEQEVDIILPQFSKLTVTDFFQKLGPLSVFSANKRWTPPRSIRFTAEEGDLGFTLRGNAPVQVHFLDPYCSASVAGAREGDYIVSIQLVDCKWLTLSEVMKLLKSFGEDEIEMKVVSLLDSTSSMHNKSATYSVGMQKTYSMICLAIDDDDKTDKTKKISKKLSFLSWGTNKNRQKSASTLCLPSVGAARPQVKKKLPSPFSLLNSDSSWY

Row | Target | thermal stability z-score (lipoamide; [1]) | thermal stability z-score (lipoamide; arsenate co-treatment: none) | thermal stability z-score (potassium arsenate)
1 | RDH10 (UniProt Q8IZV5) | 0.347 | 0.244 | 0.115
2 | RDH11 (UniProt Q8TC12) | -0.514 | 0.808 | 0.385
3 | RDH13 (UniProt Q8NBN7) | -0.0891 | -0.278 | 0.307
4 | RDH14 (UniProt Q9HBH5) | 1.25 | 0.852 | 1.53
5 | RDX (UniProt P35241) | 0.749 | 0.45 | 0.883
6 | RECQL5 (UniProt O94762) | -0.0312 | 0.0721 | -0.222
7 | RECQL (UniProt P46063) | 1.17 | 0.899 | -1.22
8 | REEP3 (UniProt Q6NUK4) | 0.197 | -0.171 | -0.0274
9 | REEP4 (UniProt Q9H6H4) | -0.55 | -0.227 | 0.579
10 | REEP5 (UniProt Q00765) | 0.359 | 1 | 0.354
11 | REEP6 (UniProt Q96HR9) | 0.703 | 0.825 | 0.0059
12 | REL (UniProt Q04864) | -0.801 | 0.147 | 0.22
13 | RELA (UniProt Q04206) | 0.384 | 0.867 | 0.374
14 | RELB (UniProt Q01201) | -0.128 | -0.07 | 0.048
15 | REPIN1 (UniProt Q9BWE0) | -0.686 | -0.309 | 0.53
16 | REPS1 (UniProt Q96D71) | -0.864 | -0.26 | 0.157
17 | REPS2 (UniProt Q8NFH8) | 0.13 | -0.0113 | -0.0535
18 | RER1 (UniProt O15258) | 0.802 | 0.615 | 0.934
19 | RERE (UniProt Q9P2R6) | 0.0956 | -0.103 | 0.00489
20 | RETSAT (UniProt Q6NUM9) | 0.0873 | 0.172 | -0.259
21 | REXO2 (UniProt Q9Y3B8) | 0.295 | 0.536 | 0.192
22 | REXO4 (UniProt Q9GZR2) | -0.103 | -0.118 | -0.149
23 | RFC1 (UniProt P35251) | -0.248 | 1.77 | -0.0625
24 | RFC2 (UniProt P35250) | -0.0963 | -0.26 | 0.381
25 | RFC3 (UniProt P40938) | -0.548 | -0.365 | -0.0936
26 | RFC4 (UniProt P35249) | -0.184 | -0.331 | 0.802
27 | RFC5 (UniProt P40937) | -0.341 | -0.0735 | 0.971
28 | RFK (UniProt Q969G6) | -0.697 | -0.27 | 0.313

Row | Target | thermal stability z-score (lipoamide; [1]) | thermal stability z-score (lipoamide; arsenate co-treatment: none) | thermal stability z-score (potassium arsenate)
29 | RFT1 (UniProt Q96AA3) | -0.878 | -0.767 | -0.609
30 | RFX1 (UniProt P22670) | 1.04 | 0.453 | 0.128
31 | RFX5 (UniProt P48382) | 0.562 | 0.613 | 0.132
32 | RGS10 (UniProt O43665) | 0.748 | 0.902 | 0.0472
33 | RHBDD2 (UniProt Q6NTF9) | -0.424 | -0.384 | -0.574
34 | RHBDF2 (UniProt Q6PJF5) | -0.0324 | -0.158 | 0.166
35 | RHEB (UniProt Q15382) | -0.13 | 0.625 | 1.46
36 | RHOA (UniProt P61586) | 0.316 | 0.411 | 0.103
37 | RHOB (UniProt P62745) | 0.0865 | 0.065 | -0.245
38 | RHOBTB3 (UniProt O94955) | 0.00346 | 0.217 | -0.0881
39 | RHOC (UniProt P08134) | 0.307 | 0.963 | 0.995
40 | RHOF (UniProt Q9HBH0) | 0.288 | 0.301 | 0.478
41 | RHOG (UniProt P84095) | 0.489 | 0.491 | 0.00682
42 | RHOT1 (UniProt Q8IXI2) | -0.488 | -0.262 | -0.708
43 | RHOT2 (UniProt Q8IXI1) | -0.832 | -0.929 | -0.176
44 | RHPN2 (UniProt Q8IUC4) | -0.97 | -1.32 | 0.193
45 | RIC8A (UniProt Q9NPQ8) | -0.305 | -0.238 | 0.476
46 | RIC8B (UniProt Q9NVN3) | -1.09 | -0.233 | -0.00195
47 | RICTOR (UniProt Q6R327) | -1.23 | -0.161 | 0.166
48 | RIF1 (UniProt Q5UIP0) | 0.0548 | -0.0166 | -0.353
49 | RILP (UniProt Q96NA2) | -0.0778 | 0.284 | 0.0653
50 | RILPL1 (UniProt Q5EBL4) | 0.571 | 0.0309 | 1.21
51 | RIN1 (UniProt Q13671) | -0.105 | -0.041 | 0.0874
52 | RING1 (UniProt Q06587) | -0.0364 | 0.0555 | -0.0985
53 | RINT1 (UniProt Q6NUQ1) | -0.699 | -0.111 | 0.354
54 | RIOK1 (UniProt Q9BRS2) | -0.529 | -0.513 | -1.27
55 | RIOK2 (UniProt Q9BVS4) | -0.0928 | -0.423 | -0.171
